US9738637B2, “Histone demethylase inhibitors” (Quanticel Pharmaceuticals, Inc., priority 2013, dated 2017)

Legend:
Format in all cases: biochemical
JMJD2C = JMJD2C (Homo sapiens (Human), UniProt Q9H3R0); experiment: JMJD2C in vitro enzyme inhibition assay (TR-FRET); settings: TR-FRET, H3K9me3-biotin peptide; read-out: IC50 JNJD2C
Method: (§1) This assay determines the ability of a test compound to inhibit Jarid1A, Jarid1B, JMJD2C, and JMJD2A demethylase activity.
Reaction product was determined quantitatively by TR-FRET after the addition of detection reagent Phycolink Streptavidin-allophycocyanin (Prozyme) and Europium-anti-di-methylated histone H3 lysine 9 (H3K9me2) antibody (PerkinElmer) in the presence of 5 mM EDTA in LANCE detection buffer (PerkinElmer) at a final concentration of 50 nM and 1 nM, respectively.
The assay reaction was initiated by the following: 2 μl of the mixture of 900 nM H3K9me3-biotin labeled peptide and 6 μM alpha-ketoglutaric acid with 2 μl of 11-point serial diluted inhibitor in 3% DMSO were added to each well of the plate, followed by the addition of 2 μl of 0.9 nM JMJD2C to initiate the reaction. The reaction mixture was incubated at room temperature for 30 minutes, and terminated by the addition of 6 μl of 5 mM EDTA in LANCE detection buffer containing 100 nM Phycolink Streptavidin-allophycocyanin and 2 nM Europium-anti-H3K9me2 antibody.
(§2) The ability of the compounds disclosed herein to inhibit demethylase activity was quantified and the respective IC50 value was determined.

Jarid1A = Jarid1A (Homo sapiens (Human), UniProt P29375); experiment: Jarid1A in vitro enzyme inhibition assay (TR-FRET); settings: H3K4me3-biotin peptide
Jarid1A, sequence (P29375 1-1090): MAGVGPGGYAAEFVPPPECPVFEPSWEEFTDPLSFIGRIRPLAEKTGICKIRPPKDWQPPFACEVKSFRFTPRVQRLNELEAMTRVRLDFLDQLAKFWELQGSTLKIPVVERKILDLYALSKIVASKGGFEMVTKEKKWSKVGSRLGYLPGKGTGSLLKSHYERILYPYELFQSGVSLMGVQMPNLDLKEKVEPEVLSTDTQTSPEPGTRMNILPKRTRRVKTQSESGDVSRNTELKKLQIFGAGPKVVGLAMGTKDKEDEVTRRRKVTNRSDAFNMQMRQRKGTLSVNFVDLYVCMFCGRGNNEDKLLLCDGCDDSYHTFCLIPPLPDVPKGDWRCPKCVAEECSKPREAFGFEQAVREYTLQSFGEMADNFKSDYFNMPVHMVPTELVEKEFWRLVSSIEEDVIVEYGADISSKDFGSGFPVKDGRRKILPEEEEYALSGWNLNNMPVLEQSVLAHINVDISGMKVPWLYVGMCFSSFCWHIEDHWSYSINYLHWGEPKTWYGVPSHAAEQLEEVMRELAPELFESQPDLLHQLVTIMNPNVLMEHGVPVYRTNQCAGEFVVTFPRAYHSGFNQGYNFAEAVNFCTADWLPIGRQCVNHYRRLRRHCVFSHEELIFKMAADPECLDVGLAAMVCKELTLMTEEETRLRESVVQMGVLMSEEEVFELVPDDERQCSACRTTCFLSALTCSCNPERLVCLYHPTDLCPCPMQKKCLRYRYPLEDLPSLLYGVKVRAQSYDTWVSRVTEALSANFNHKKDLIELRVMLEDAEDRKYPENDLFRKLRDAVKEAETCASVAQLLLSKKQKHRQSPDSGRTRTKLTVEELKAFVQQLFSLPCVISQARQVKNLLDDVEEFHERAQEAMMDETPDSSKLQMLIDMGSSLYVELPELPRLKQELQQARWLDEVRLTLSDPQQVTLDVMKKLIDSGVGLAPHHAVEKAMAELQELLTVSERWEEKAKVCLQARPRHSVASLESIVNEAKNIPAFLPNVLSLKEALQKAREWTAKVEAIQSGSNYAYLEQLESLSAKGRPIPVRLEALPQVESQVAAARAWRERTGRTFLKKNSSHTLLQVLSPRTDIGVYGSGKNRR
Method: as §1
The enzymatic assay of Jarid1A activity is based upon Time Resolved-Fluorescence Resonance Energy Transfer (TR-FRET) detection.
The assay reaction was initiated by the following: 2 μl of the mixture of 900 nM H3K4me3-biotin labeled peptide and 6 μM alpha-ketoglutaric acid with 2 μl of 11-point serial diluted inhibitor in 3% DMSO was added to each well of plate, followed by the addition of 2 μl of 3 nM Jarid1A to initiate the reaction. The reaction mixture was incubated at room temperature for 30 minutes, and terminated by the addition of 6 μl of 5 mM EDTA in LANCE detection buffer containing 50 nM Phycolink Streptavidin-allophycocyanin and 2 nM Europium-anti-H3K4me1-2 antibody.
as §2

Jarid1B = Jarid1B (Homo sapiens (Human), UniProt Q9UGL1); experiment: Jarid1B in vitro enzyme inhibition assay (TR-FRET); settings: TR-FRET, H3K4me3-biotin peptide; read-out: IC50 Jarid1B
Jarid1B, sequence (Q9UGL1 2-751): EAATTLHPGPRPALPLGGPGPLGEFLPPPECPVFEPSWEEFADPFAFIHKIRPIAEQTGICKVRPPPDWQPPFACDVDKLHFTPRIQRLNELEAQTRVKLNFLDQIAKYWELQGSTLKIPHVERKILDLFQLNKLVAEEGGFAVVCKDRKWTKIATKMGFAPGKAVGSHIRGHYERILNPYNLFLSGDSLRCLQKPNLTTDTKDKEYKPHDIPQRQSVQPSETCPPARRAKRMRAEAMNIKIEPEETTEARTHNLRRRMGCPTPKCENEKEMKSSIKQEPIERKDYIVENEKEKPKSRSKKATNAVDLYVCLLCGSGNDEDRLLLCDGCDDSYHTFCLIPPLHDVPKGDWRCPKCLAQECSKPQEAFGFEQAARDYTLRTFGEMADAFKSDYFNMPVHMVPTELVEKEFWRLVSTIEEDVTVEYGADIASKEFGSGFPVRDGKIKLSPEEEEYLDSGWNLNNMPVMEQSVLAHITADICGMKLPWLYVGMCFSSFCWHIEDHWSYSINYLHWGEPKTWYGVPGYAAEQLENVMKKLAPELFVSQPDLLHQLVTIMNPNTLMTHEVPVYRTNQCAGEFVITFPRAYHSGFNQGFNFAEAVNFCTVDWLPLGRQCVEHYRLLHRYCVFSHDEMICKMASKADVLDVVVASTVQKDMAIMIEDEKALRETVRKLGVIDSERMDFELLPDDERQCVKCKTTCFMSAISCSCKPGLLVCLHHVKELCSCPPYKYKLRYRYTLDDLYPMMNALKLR
Method: as §1
The reaction mixture was incubated at room temperature for 30 minutes, and terminated by the addition of 6 μl of 5 mM EDTA in LANCE detection buffer containing 50 nM Phycolink Streptavidin-allophycocyanin and 2 nM Europium-anti-H3K4me1-2 antibody.
as §2

JMJD2C, sequence (Q9H3R0 2-372): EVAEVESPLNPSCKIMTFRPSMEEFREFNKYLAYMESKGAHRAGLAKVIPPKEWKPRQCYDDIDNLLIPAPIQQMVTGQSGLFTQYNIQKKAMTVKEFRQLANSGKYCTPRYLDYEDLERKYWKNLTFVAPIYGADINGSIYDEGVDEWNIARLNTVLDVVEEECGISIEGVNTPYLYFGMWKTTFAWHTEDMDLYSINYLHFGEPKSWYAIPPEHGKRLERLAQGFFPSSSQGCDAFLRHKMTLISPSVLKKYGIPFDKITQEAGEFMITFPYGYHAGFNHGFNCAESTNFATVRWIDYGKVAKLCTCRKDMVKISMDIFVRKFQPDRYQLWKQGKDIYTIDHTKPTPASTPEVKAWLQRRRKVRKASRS

| Molecule | IC50 (JMJD2C) [nM] | IC50 (Jarid1A) [nM] | IC50 (Jarid1B) [nM] |
| --- | --- | --- | --- |
| N#CCCc1cc2nccc(C(=O)O)c2[nH]1 [Example 58, 2-(2-cyanoethyl)-1H-pyrrolo[3,2-b]pyridine-7-carboxylic acid] | < 100 | 100 to 1000 | 100 to 1000 |
| COc1ccc(Cc2cc3nccc(C(=O)O)c3[nH]2)cc1 [Example 59, 2-[(4-methoxyphenyl)methyl]-1H-pyrrolo[3,2-b]pyridine-7-carboxylic acid] | < 100 | 100 to 1000 | 100 to 1000 |
| Cc1ccc(OCc2cc3nccc(C(=O)O)c3[nH]2)cc1 [Example 62, 2-[(4-methylphenoxy)methyl]-1H-pyrrolo[3,2-b]pyridine-7-carboxylic acid] | 100 to 1000 | 100 to 1000 | 100 to 1000 |
| O=C(O)c1ccnc2cc(COc3ccc(C(F)(F)F)cc3)[nH]c12 [Example 68, 2-[[4-(trifluoromethyl)phenoxy]methyl]-1H-pyrrolo[3,2-b]pyridine-7-carboxylic acid] | 100 to 1000 | < 100 | < 100 |
| O=C(O)c1ccnc2cc(CCc3ccccc3)[nH]c12 [Example 70, 2-(2-phenylethyl)-1H-pyrrolo[3,2-b]pyridine-7-carboxylic acid] | < 100 | 100 to 1000 | 100 to 1000 |
| O=C(O)c1ccnc2cc(COc3ccc4c(c3)CCO4)[nH]c12 [Example 76, 2-(2,3dihydro-1-benzofuran-5-yloxymethyl)-1H-pyrrolo[3,2-b]pyridine-7-carboxylic acid] | 100 to 1000 | < 100 | < 100 |
| O=C(O)c1ccnc2cc(Cc3ccccc3Cl)[nH]c12 [Example 78, 2-[(2-chlorophenyl)methyl]-1H-pyrrolo[3,2-b]pyridine-7-carboxylic acid] | < 100 | < 100 | < 100 |
| O=C(O)c1ccnc2cc(COc3cccc(F)c3)[nH]c12 [Example 79, 2-[(3-fluorophenoxy)methyl]-1H-pyrrolo[3,2-b]pyridine-7-carboxylic acid] | < 100 | < 100 | < 100 |
| O=C(O)c1ccnc2cc(COc3cccc(Cl)c3)[nH]c12 [Example 80, 2-[(3-chlorophenoxy)methyl]-1H-pyrrolo[3,2-b]pyridine-7-carboxylic acid] | 100 to 1000 | < 100 | < 100 |
| O=C(O)c1ccnc2cc(COc3cc(F)cc(F)c3)[nH]c12 [Example 81, 2-[(3,5-difluorophenoxy)methyl]-1H-pyrrolo[3,2-b]pyridine-7-carboxylic acid] | < 100 | < 100 | < 100 |
| Cc1cc(C)cc(OCc2cc3nccc(C(=O)O)c3[nH]2)c1 [Example 82, 2-[(3,5-dimethylphenoxy)methyl]-1H-pyrrolo[3,2-b]pyridine-7-carboxylic acid] | 100 to 1000 | < 100 | < 100 |
| O=C(O)c1ccnc2cc(COc3cc(Cl)cc(Cl)c3)[nH]c12 [Example 83, 2-[(3,5-dichlorophenoxy)methyl]-1H-pyrrolo[3,2-b]pyridine-7-carboxylic acid] | 100 to 1000 | < 100 | < 100 |
| O=C(O)c1ccnc2cc(Cc3ccc(Cl)cc3Cl)[nH]c12 [Example 90, 2-[(2,4-dichlorphenyl)methyl]-1H-pyrrolo[3,2-b]pyridine-7-carboxylic acid] | 100 to 1000 | < 100 | < 100 |
| O=C(O)c1ccnc2cc(-c3cc4ccccc4o3)[nH]c12 [Example 92, 2-(1-benzofuran-2-yl)-1H-pyrrolo[3,2-b]pyridine-7-carboxylic acid] | 100 to 1000 | 100 to 1000 | 100 to 1000 |
| COc1ccc(OCc2cc3nccc(C(=O)O)c3[nH]2)cc1 [Example 93, 2-[(4-methoxyphenoxy)methyl]-1H-pyrrolo[3,2-b]pyridine-7-carboxylic acid] | 100 to 1000 | 100 to 1000 | < 100 |
| O=C(O)c1ccnc2cc(COc3ccccc3Cl)[nH]c12 [Example 94, 2-[(2-chlorophenoxy)methyl]-1H-pyrrolo[3,2-b]pyridine-7-carboxylic acid] | 1000 to 10000 | 100 to 1000 | 100 to 1000 |

| Molecule | IC50 (JMJD2C) [nM] | IC50 (Jarid1A) [nM] | IC50 (Jarid1B) [nM] |
| --- | --- | --- | --- |
| O=C(O)c1ccnc2cc(COc3ccccc3F)[nH]c12 [Example 95, 2-[(2-fluorophenoxy)methyl]-1H-pyrrolo[3,2-b]pyridine-7-carboxylic acid] | 100 to 1000 | 100 to 1000 | 100 to 1000 |
| O=C(O)c1ccnc2cc(COc3ccc(F)cc3Cl)[nH]c12 [Example 96, 2-[(2-chloro-4-fluorophenoxy)methyl]-1H-pyrrolo[3,2-b]pyridine-7-carboxylic acid] | 100 to 1000 | < 100 | < 100 |
| CC(=O)Nc1ccc(OCc2cc3nccc(C(=O)O)c3[nH]2)cc1 [Example 97, 2-{[4-(acetylamino)phenoxy]methyl}-1H-pyrrolo[3,2-b]pyridine-7-carboxylic acid] | 100 to 1000 | 100 to 1000 | 100 to 1000 |
| N#Cc1ccc(OCc2cc3nccc(C(=O)O)c3[nH]2)cc1 [Example 98, 2-[(4-cyanophenoxy)methyl]-1H-pyrrolo[3,2-b]pyridine-7-carboxylic acid] | 100 to 1000 | < 100 | 100 to 1000 |
| CC(O)(c1ccc(F)cc1)c1cc2nccc(C(=O)O)c2[nH]1 (stereo not drawn) [Example 103, 2-[1-(4-fluorophenyl)-1-hydroxyethyl]-1H-pyrrolo[3,2-b]pyridine-7-carboxylic acid] | < 100 | < 100 | < 100 |
| O=C(O)c1ccnc2cc(C(=O)N3CCCc4ccccc43)[nH]c12 [Example 105, 2-(1,2,3,4-tetrahydroquinolylcarbonyl)-pyrrolo[3,2-b]pyridine-7-carboxylic acid] | 1000 to 10000 | 100 to 1000 | 1000 to 10000 |
| O=C(O)c1ccnc2cc(C(=O)N3CCc4ccccc43)[nH]c12 [Example 107, 2-(indolinylcarbonyl)pyrrolo[3,2-b]pyridine-7-carboxylic acid] | 100 to 1000 | < 100 | < 100 |
| O=C(O)c1ccnc2cc(C(=O)N3CCCCC3)[nH]c12 [Example 109, 2-(piperidylcarbonyl)pyrrolo[3,2-b]pyridine-7-carboxylic acid] | 100 to 1000 | 100 to 1000 | 100 to 1000 |
| CC(c1ccc(F)cc1)c1cc2nccc(C(=O)O)c2[nH]1 (stereo not drawn) [Example 110, 2-[1-(4-fluorophenyl)ethyl]-1H-pyrrolo[3,2-b]pyridine-7-carboxylic acid] | 100 to 1000 | 100 to 1000 | 100 to 1000 |
| O=C(O)c1ccnc2cc(Cc3ccc(F)c(Cl)c3)[nH]c12 [Example 112, 2-(3-chloro-4-fluorobenzyl)-1H-pyrrolo[3,2-6]pyridine-7-carboxylic acid] | < 100 | < 100 | < 100 |
| O=C(O)c1ccnc2cc(Cc3ccc(Cl)c(F)c3)[nH]c12 [Example 114, 2-(4-chloro-3-fluorobenzyl)-1H-pyrrolo[3,2-b]pyridine-7-carboxylic acid] | < 100 | < 100 | < 100 |
| O=C(O)c1ccnc2cc(C(=O)N3CCC(c4ccccc4)C3)[nH]c12 (stereo not drawn) [Example 116, 2-[(3-phenylpyrrolidinyl)carbonyl]-pyrrolo[3,2-b]pyridine-7-carboxylic acid] | 100 to 1000 | < 100 | < 100 |
| O=C(O)c1ccnc2cc(C(=O)N3CCCC(c4ccccc4)C3)[nH]c12 (stereo not drawn) [Example 120, 2-[(3-phenylpiperidyl)carbonyl]pyrrolo-[3,2-b]pyridine-7-carboxylic acid] | 100 to 1000 | 100 to 1000 | 100 to 1000 |
| O=C(O)c1ccnc2cc(C(=O)N3CCc4ccccc4C3)[nH]c12 [Example 122, 2-(2-1,2,3,4-tetrahydroisoquinolylcarbonyl)-pyrrolo[3,2-b]pyridine-7-carboxylic acid] | 100 to 1000 | < 100 | < 100 |
| CC1(C)CCCN1C(=O)c1cc2nccc(C(=O)O)c2[nH]1 [Example 124, 2-[(2,2-dimethylpyrrolidinyl)carbonyl]-pyrrolo[3,2-b]pyridine-7-carboxylic acid] | 100 to 1000 | 100 to 1000 | < 100 |
| (±)-methyl 2-(1-hydroxy-2-methylpropyl)-1H-pyrrolo[3,2-b]pyridine-7-carboxylate [Example 30] | < 100 | 100 to 1000 | < 100 |
